Results as given in publication PMC11729428, “New Potent Inhibitor of Transforming Growth Factor-Beta (TGFβ) Signaling that is Efficacious against Microsatellite Stable Colorectal Cancer Metastasis in Combination with Immune Checkpoint Therapy in Mice” (ACS Pharmacology & Translational Science, 2024).
pIC50: −log10 of the molar value.

Assays:
in vitro [1] = conditions: human
Procedure: (§1) 5. Methods for In vitro characterizations of HYL001 […]
(§2) Rapid equilibrium dialysis was performed in triplicates with a rapid equilibrium dialysis (RED) by Sai Life Sciences Lt. (Telangana, India). The RED device contains a dialysis membrane with a molecular weight cut -off […]
(§3) of 8,000 Da, separating two chambers for plasma and buffer, respectively. […]
(§4) were added to the plasma chamber, versus phosphate buffer saline (pH 7.4) to the buffer chamber. Dialysis was performed for 4 h with 100 RPM shaking at 37 °C. […]
(§5) compounds in plasma were either frozen immediately (T0 sample), or incubated at 37 °C for 4 h without dialysis (non-dialysed), respectively.
(§6) Following dialysis, an aliquot was removed from either chamber and diluted with equal volume of opposite matrix to nullify the matrix effect. Similarly, buffer was added to recovery and stability samples. Next, acetonitrile (containing internal standard, glipizide) was added to the mixtures for protein precipitation and vortexed for 5 minutes. The samples were centrifuged at 4000 RPM at 4 °C for 10 min and the supernatant was submitted for liquid chromatography mass spectrometry (LC-MS/MS) analysis. Samples were monitored for parent compound using multiple reaction monitoring (MRM) mode.
(§7) The peak area ratios (PAR, analyte versus internal standard) in plasma vs bufffer were used to determine the fraction of compound bound to plasma proteins. The following equation was used to determine the extent of plasma protein binding: percent free drug = 100% x (PARbuffer / PARplasma); percent bound drug = 100 - % free drug. Recovery was calculated as 100% x (PARplasma + PARbuffer)dialysed / (PARplasma)non-dialysed; stability as 100% x (PAR)non-dialysed / (PARplasma)frozen at T0. […]

in vitro [2] = conditions: rat
Procedure: as §1, §2, §3, §4, §5, §6, §7

in vitro [3] = conditions: mouse
Procedure: as §1, §2, §3, §4, §5, §6, §7

ALK5 = conditions: structure-activity relationship study of Li et al. ref 16; cited from earlier work

Structure (SMILES)	recovery at 4 h, 5 µM (in vitro [1]; pH 7.4) [%]	% Compound remaining at 4 hrs (in vitro [1]; plasma, 4 h, 5 µM) [%]	recovery at 4 h, 5 µM (in vitro [2]; pH 7.4) [%]	% Compound remaining at 4 hrs (in vitro [2]; plasma, 4 h, 5 µM) [%]	recovery at 4 h, 5 µM (in vitro [3]; pH 7.4) [%]	% Compound remaining at 4 hrs (in vitro [3]; plasma, 4 h, 5 µM) [%]	pIC50 (ALK5)
CC(=O)CC(c1ccccc1)c1c(O)c2ccccc2oc1=O (stereo not shown) [Warfarin, reference compound]	100	84.2	98.6	104.8	99.9	106.2	
Cc1cccc(-c2nn3c(c2-c2ccnc4ccc(Br)cc24)CCC3)n1 [6-Br, 6-Bromo-4-(2-(6-methylpyridin-2-yl)-5,6-dihydro-4H-pyrrolo[1,2-b]pyrazol-3-yl) Quinoline]							7.05
